# Source: US11766440B1, “Methods for the prevention and treatment of hearing loss” (Ting Therapeutics LLC, priority 2020, dated 2023)
# Counter-ions that a name gives are not always drawn. Like-named read-outs stand apart in the source and are kept apart here.
# Experiments:
# [1] = molecular target: EGFR kinase (Homo sapiens, UniProt P00533); conditions: measured value; read-out: IC50 in EGFR kinase inhibition assays; cited from earlier work
# [2] = test system: zebrafish lateral line neuromast hair cells; test: Zebrafish lateral line neuromast hair cell counts after aminoglycoside; type: in vivo, Danio rerio; conditions: 5dpf larvae, 1 hour pre-incubation 0.002-13.3 μM
# Method: . Each treatment was pretreated with MMB at the prescribed doses prior to co-treatment with the aminoglycoside. Control animal were treated with DMSO (−) or KM or GM alone (+) Animals were then fixed and immunostained for GFP and otoferlin. Quantification was done by assessing three neuromasts in the same anatomic location of each animal (n=5). The data is plotted as mean+SD. Statistical testing was done with One-way ANOVA and Dunnett post-hoc test (*P<0.05, **P<0.01,***P<0.001).
# FIG. 4A-B show Fedratinib (FED) protected zebrafish mechanosensory hair cells against kanamycin (KM) in vivo. 5dpf Tg(Brn3c:mGFP) larvae were used for the experiments. Each treatment was pretreated FED at the prescribed doses prior to co-treatment with the aminoglycoside. […] Control animal were treated with DMSO (−) or KM alone (+) Animals were then fixed and immunostained for GFP and otoferlin. Quantification was done by assessing three neuromasts in the same anatomic location of each animal (n=5). […]
# These two markers were used to detect and count neuromast HCs to reduce the chances of missing some of the HCs after the treatment since we previously noticed that incubation with the compounds can affect GFP expression more difficult to detect under a fluorescence microscope (26). […] Compounds were then evaluated on efficiency and potency, with the top-rated compounds showing high protection at lower concentrations. […]
# [3] = test system: outer hair cells of cochlear explants of P3 FVB mice; test: Outer hair cell survival in whole-mount cochlear explants treated with aminoglycosides; type: cell-based, mouse
# Method: A) Representative confocal images of the middle turn of whole-mount cochlear explants from P3 FVB mice treated with medium alone, […] gentamicin, 0.2 μM Momelotinib and […] gentamicin for 24 h. […] HCs are labeled with phalloidin. […] (Mann-Whitney U Test, *P<0.05, **P<0.01) shown in a micromolar concentration.
# Now referring to FIG. 2A-B, Momelotinib protects from aminoglycoside toxicity in cochlear explants of P3 FVB mice. FVB mice were bred in the Creighton University animal facility. Procedures were approved by the IACUC committee of the Creighton University. 2A) Inner ears were collected from the post-natal day 3 (P3) FVB mice and transferred onto a filter (Millicell, PICM03050; Millipore) soaked in culturing medium. The filter was placed in 6-well culture plates with 1.2 mL medium outside the filter. The culturing medium is DMEM (10565-018; gibco) with 1% FBS (16000-044; gibco), 500 μL ampicillin (A5354; Sigma), 100 μL N-2 supplement (17502-048, gibco) and 100 μL B-27 supplement (17504-044, gibco). After culturing for 24 h at 37° C. in 5% CO2, 1 mL culturing medium with MMB at 0.2 μM, […] MMB alone or without MMB and added both inside and outside the filter to preincubate for another 1 h before adding gentamicin solution. A 50 μg/mL gentamicin (G1397, Sigma) was chosen to induce around 35% hair cell death after incubation for 24 h at 37° C. For compound CYT-387 or MMB (A10263, AdooQ). The procedures were performed under sterile condition in the culture hood. Cochleae were then fixed with 4% PFA for 30 min and stained with Alexa Fluor 555 phalloidin in to determine the survival rate of the hair cells. All the cochleae images were taken with Zeiss 700 confocal microscopy. […] The survival OHCs were then normalized to 100 μm length to further compare between different experimental conditions. 2B) OHC survival (OHC number per 100 μm length of cochlear middle turn) after treatment with Momelotinib at 0.0016, 0.008, 0.04, 0.2, 1.0, 5.0, 10.0 and 20.0 μM for 1 hour and co-incubated with 100 μM GM for 1 hour, or co-incubated with 600 μM kanamycin (K0254, Sigma) for 1 hour. […]
# [4] = 14-day oral toxicity and auditory brainstem response (ABR) thresholds in mice; type: in vivo, C57BL/6 mice
# Method: Auditory brainstem response (ABR) thresholds were recorded for 3 frequencies (8 kHz, 16 kHz, and 32 kHz) before and after a 14-day MMB treatment protocol. […] Statistical analysis was done with repeated measures ANOVA between groups.
# 4-week-old C57BL/6 mice obtained from The Jackson Laboratory were used, with a mix of males and females across experiments. Mice were administered a 14-day Momelotinib treatment protocol. Auditory Brainstem Response thresholds were recorded at 8 kHz, 16 kHz, and 32 kHz for a baseline sample of mice and the mice administered Momelotinib.
# [5] = test system: panel of 38 non-JAK kinases; conditions: cited from earlier work
# [6] = molecular target: T1, JAK3 (Homo sapiens, UniProt P52333); conditions: cited from earlier work
# T1 sequence (P52333 1-1124): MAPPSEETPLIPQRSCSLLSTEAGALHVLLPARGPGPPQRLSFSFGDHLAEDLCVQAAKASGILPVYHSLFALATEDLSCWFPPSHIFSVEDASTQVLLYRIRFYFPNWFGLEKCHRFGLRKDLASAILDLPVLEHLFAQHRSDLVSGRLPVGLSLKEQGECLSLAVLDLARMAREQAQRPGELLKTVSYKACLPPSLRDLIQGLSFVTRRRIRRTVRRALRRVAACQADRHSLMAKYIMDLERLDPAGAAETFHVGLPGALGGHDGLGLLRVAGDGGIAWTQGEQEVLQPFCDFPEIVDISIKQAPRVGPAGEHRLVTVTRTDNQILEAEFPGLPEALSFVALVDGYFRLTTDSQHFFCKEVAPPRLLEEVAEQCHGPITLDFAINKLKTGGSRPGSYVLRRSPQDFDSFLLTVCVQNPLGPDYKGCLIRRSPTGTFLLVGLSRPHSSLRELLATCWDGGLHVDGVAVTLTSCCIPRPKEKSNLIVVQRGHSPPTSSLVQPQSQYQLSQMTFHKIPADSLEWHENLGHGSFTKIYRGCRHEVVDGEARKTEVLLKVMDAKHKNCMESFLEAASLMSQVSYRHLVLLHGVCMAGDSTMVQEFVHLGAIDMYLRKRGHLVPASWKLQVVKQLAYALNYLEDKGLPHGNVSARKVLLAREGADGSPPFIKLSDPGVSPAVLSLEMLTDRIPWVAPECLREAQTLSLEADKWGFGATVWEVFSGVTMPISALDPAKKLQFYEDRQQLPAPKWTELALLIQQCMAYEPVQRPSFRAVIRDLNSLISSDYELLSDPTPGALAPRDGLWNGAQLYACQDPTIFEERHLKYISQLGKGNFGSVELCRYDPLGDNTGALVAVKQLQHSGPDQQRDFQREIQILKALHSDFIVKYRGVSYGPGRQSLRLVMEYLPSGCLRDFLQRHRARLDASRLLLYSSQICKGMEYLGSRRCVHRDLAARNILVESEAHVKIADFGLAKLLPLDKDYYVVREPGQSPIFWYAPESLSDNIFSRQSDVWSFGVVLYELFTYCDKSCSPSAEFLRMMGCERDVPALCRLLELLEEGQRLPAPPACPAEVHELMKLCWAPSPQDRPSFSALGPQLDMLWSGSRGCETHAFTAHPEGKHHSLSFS
# [7] = molecular target: JAK2 (Homo sapiens, UniProt O60674); conditions: cited from earlier work
# [8] = molecular target: JAK1 (Homo sapiens, UniProt P23458); conditions: cited from earlier work
# [9] = molecular target: TYK2 (Homo sapiens, UniProt P29597); conditions: cited from earlier work
# TYK2, sequence (P29597 whole entry): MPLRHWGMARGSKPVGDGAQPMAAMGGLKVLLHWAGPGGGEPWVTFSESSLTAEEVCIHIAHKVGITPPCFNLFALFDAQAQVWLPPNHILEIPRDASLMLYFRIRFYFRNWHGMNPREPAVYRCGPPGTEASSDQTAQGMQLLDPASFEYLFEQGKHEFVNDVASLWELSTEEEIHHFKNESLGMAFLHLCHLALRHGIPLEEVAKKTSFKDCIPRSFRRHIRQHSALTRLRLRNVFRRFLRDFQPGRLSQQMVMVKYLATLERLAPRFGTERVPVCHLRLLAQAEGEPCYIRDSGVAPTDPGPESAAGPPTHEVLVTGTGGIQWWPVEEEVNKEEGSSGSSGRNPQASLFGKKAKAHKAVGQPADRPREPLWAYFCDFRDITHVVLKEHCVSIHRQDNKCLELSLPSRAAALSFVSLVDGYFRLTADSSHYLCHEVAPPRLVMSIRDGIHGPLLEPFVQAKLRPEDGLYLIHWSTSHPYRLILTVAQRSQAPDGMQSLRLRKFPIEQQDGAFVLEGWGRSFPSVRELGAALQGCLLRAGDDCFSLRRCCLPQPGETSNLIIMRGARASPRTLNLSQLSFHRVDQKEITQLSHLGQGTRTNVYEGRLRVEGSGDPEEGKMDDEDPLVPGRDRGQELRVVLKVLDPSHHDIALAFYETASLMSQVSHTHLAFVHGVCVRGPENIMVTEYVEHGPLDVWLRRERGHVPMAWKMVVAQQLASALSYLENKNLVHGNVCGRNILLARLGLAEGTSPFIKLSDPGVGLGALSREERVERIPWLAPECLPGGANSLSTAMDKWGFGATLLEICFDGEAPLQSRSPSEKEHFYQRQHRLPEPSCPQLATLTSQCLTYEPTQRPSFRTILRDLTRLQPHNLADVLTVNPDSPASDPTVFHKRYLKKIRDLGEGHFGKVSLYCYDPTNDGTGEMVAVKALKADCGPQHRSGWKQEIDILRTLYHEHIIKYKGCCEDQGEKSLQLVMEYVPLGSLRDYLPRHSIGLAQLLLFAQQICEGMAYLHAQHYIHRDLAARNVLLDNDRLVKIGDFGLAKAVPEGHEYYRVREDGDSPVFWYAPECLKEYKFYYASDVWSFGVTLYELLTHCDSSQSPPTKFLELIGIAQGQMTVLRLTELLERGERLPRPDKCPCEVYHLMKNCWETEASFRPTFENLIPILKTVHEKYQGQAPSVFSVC
# JAK1, sequence (P23458 whole entry, species assumed): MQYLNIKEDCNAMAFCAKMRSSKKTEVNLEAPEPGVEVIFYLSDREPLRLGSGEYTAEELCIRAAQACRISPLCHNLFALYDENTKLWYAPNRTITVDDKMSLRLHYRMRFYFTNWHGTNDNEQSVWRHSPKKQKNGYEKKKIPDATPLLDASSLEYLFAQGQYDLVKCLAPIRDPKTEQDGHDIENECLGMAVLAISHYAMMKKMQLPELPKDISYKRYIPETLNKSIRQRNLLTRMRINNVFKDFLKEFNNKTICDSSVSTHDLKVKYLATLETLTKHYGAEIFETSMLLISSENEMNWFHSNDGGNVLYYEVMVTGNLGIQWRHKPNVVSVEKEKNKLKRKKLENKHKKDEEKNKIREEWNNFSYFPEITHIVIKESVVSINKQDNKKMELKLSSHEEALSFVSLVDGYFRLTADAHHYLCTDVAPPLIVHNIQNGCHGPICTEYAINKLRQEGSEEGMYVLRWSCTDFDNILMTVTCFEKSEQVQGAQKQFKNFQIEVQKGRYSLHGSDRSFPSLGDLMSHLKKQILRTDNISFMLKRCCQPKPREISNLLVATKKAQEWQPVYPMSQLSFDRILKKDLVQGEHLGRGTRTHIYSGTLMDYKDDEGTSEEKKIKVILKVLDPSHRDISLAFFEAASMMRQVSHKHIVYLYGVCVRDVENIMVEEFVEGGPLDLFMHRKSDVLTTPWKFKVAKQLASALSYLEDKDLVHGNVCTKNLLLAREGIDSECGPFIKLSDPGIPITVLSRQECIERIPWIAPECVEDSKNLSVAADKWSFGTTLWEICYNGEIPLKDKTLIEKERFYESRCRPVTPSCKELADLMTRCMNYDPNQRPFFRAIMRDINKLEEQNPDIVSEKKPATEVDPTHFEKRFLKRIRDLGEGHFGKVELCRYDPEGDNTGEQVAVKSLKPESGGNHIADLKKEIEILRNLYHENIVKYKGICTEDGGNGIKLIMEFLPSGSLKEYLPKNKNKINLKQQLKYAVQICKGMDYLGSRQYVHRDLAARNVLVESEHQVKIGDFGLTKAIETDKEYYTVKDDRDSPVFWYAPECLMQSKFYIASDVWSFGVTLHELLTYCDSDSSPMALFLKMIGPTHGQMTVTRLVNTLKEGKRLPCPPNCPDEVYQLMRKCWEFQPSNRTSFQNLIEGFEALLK
# JAK2, sequence (O60674 whole entry, species assumed): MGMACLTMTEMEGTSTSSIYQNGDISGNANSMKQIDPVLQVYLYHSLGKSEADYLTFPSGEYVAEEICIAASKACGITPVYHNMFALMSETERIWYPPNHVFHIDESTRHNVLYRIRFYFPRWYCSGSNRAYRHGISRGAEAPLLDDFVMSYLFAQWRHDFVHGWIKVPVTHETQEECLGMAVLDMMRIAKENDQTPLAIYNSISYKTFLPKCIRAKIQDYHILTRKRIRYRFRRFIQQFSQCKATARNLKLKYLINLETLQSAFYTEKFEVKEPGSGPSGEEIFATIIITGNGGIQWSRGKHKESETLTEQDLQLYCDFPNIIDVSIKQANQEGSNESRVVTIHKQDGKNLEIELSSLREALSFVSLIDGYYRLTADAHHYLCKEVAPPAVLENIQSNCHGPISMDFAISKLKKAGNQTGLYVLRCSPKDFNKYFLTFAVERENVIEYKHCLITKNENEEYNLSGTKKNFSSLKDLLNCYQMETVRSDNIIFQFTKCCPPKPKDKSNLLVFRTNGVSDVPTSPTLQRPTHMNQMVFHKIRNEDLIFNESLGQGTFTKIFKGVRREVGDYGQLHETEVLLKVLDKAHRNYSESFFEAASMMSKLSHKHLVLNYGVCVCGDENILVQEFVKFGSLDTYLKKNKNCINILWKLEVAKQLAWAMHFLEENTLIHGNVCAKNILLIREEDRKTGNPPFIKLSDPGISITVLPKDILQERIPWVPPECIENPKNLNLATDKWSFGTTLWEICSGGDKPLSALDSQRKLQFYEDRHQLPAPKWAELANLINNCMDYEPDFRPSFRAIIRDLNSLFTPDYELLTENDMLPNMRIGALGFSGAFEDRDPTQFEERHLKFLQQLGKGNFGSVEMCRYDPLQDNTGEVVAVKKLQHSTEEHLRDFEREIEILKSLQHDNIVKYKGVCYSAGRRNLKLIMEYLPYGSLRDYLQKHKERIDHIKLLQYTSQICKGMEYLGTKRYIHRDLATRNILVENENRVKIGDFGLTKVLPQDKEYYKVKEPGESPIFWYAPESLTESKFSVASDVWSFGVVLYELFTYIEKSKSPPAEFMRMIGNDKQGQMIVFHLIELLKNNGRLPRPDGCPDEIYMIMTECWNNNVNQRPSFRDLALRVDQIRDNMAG
# EGFR kinase, sequence (P00533 25-1210): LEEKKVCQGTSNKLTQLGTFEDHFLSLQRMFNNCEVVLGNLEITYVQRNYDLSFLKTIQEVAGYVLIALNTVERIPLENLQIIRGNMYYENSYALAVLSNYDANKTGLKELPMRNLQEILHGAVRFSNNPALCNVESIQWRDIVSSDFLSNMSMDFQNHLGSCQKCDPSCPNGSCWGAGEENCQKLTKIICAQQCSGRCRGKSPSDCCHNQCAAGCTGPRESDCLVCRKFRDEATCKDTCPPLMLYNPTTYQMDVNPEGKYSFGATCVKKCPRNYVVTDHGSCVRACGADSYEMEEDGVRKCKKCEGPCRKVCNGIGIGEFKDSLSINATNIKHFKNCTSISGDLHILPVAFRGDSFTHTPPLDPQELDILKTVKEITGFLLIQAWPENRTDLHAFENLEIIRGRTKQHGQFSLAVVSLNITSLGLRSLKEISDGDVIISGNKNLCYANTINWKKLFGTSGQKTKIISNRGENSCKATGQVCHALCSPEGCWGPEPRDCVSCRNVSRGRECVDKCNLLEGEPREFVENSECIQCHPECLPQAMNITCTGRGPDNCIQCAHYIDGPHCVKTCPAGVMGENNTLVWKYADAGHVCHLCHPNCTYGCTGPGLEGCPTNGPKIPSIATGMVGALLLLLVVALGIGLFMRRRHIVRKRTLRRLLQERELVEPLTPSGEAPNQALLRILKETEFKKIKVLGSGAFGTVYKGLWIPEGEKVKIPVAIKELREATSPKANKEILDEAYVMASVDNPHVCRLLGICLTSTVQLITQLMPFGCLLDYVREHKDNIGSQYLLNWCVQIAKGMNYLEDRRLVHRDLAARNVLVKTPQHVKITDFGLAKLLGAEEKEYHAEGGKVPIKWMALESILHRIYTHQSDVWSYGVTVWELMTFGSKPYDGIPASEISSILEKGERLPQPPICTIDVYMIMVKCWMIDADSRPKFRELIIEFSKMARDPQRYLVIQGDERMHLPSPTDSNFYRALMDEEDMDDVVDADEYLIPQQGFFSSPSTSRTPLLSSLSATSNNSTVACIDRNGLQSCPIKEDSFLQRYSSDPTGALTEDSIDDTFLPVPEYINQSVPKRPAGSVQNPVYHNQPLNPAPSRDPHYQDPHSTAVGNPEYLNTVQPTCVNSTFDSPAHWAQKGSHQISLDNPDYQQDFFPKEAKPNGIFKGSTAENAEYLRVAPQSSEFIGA
compound,measurement,setting,value
COc1cc2ncnc(Nc3cc(Br)c(O)c(Br)c3)c2cc1OC [WHI-P97],IC50,[1],2500 nM
N#CCNC(=O)c1ccc(-c2ccnc(Nc3ccc(N4CCOCC4)cc3)n2)cc1 [Momelotinib],protection of mechanosensory hair cells against gentamicin (GM),[2]; then GM 100 uM for 1 hour,protected
same,protection of mechanosensory hair cells against kanamycin (KM),[2]; then KM 200 or 300 uM for 1 hour or 150 uM for 6 hours,protected
same,toxicity to HCs of compound alone,"[3]; 0.2 μM Momelotinib alone, cochlear explants",did not show toxicity
same,hair cell loss at the middle turn region (phalloidin images),"[3]; cotreated with MMB 0.2 μM and gentamicin (GM), 24 h, P3 FVB cochlear explants",minimal levels of hair cell loss
same,protection against aminoglycoside-induced hair cell loss (OHC number per 100 μm length of cochlear middle turn),"[3]; cotreatment with Momelotinib and gentamicin or kanamycin, n=5 per group",full protection
same,inner ear toxicity: ABR thresholds before and after treatment,"[4]; 8 kHz, 16 kHz and 32 kHz, 14-day Momelotinib protocol",No differences
same,general toxicity in vivo,"[4]; oral, up to 100 mg/kg/day over a 14-day regimen, 4-week-old C57BL/6 mice",not toxic
Oclacitinib maleate,inhibition of a panel of 38 non-JAK kinases,[5],does not inhibit
N#Cc1ccc(COc2ccc(-c3cccc4nc(NC(=O)C5CC5)nn34)cc2)cn1 [GLPG0634 analogue],IC50,[6],810 nM
same,IC50,[7]; cell-free assay for AZD1480 and AT9283,28 nM
same,IC50,[8],10 nM
same,IC50,[9],116 nM
COc1cc2ncnc(Nc3ccc(O)cc3)c2cc1OC [JANEX-1],IC50,[6],78000 nM
same,activity against JAK2,[7],without altering the activity
same,activity against JAK1,[8],without altering the activity
CC(C)N(CCC(=O)c1ccc2ccccc2c1)Cc1ccccc1 [ZM 39923 HCl],activity against JAK2,[7],almost no activity
NC(=O)c1nc(-c2c(F)cccc2Cl)oc1Nc1ccc(C(=O)N2CCOCC2)cc1 [SAR-20347],IC50,[6]; cell-free assay for AT9283,41 nM
same,IC50,[8],23 nM
same,IC50,[9],0.6 nM
CC1(C)CN(C(=O)c2ccc(-c3cccc4nc(NC(=O)C5CC5)nn34)cc2)C1 [Solcitinib],selectivity for JAK1 over JAK3,[6],55 fold
same,selectivity for JAK1 over JAK2,[7],11 fold
same,IC50,[8],8 to 9 nM
same,selectivity for JAK1 over TYK2,[9],23 fold
COc1cc2ncnc(Nc3ccc(O)c(Br)c3)c2cc1OC [WHI-P154],activity against JAK2,[7],no activity
same,activity against JAK1,[8],no activity
